Tests used:
KSM-11 = test: Viable cells, multiple myeloma KSM-11; format: cell-based, human; conditions: 24 hours
Description: (§1) Viable and metabolically active cells were assayed using CellTiter-Blue (Promega) or PrestoBlue (Invitrogen) following manufacturer's instruction. In a 96 well plate format, 15×10^3 cells were pretreated with 0.1% Vehicle or increasing concentration of inhibitors as noted (for 16 h, 24 h, 48 h, and/or 72 hr) and fluorescence was detected on the SpectraMax M2e (Molecular Devices) after 30 min incubation with dye.

His-6Skp1-Skp2-Cks1 = molecular target: T1, His-6Skp1-Skp2-Cks1 (Homo sapiens, UniProt P61024+Q13309); test: Differential scanning fluorimetry (protein melt); format: binding; conditions: compound 75 μM; protein 1.5 μM
T1 construct: His6-tagged human Skp2 (residues 89-424); Human full-length Cks1 was produced as described; made in house
Description: Protein melt assays were carried out following the manufacturer's protocol on the LightCycler 480 System II (Roche) using Sypro Orange dye (Sigma). Fluorescence (465 nm excitation/580 nm detection) was acquired (10 data points/sec) at a ramp rate of 0.06° C./sec between 20° C. and 85° C. Melting temperatures were calculated using the LightCycler 480 Protein Melt analysis tool (Roche).

ARP-1 = test: Viable cells, multiple myeloma ARP-1; format: cell-based, human; conditions: 24 hours
Description: as §1

MCF-7 = test: Viable and metabolically active cells, MCF-7; format: cell-based, human; conditions: 16 h
Description: as §1

[1] = molecular target: T2, His6-Skp2-Skp1-Cks1 complex (Homo sapiens, UniProt P61024+Q13309); test: Surface plasmon resonance (SPR); format: binding; conditions: 1:1 interaction model; 25° C.
T2 construct: His6-tagged human Skp2 (residues 89-424); Human full-length Cks1 was produced as described; made in house

ECC-1 cells [2] = test: ECC-1 cell proliferation (MTS assay); format: cell-based, human; conditions: for Inhibition of cellular proliferation over the Vehicle control: 10 μM (FIG. 13A); for Blocking E2-induced proliferation: compound plus E2 (FIG. 14D)
ECC-1 cells [3] = test: ECC-1 cell proliferation (MTS assay); format: cell-based, human; conditions: for Increase in nuclear p27 and inhibition of cell proliferation following Skp2 knock-down: ECC-1, Skp2 siRNA, knock-down by 85%; for Inhibition of cell proliferation: ECC-1 transfected with control siRNA (FIG. 14B)
Description: ECC-1 cells in complete media were seeded at 1.2×10^5/well in 12-well plates and after 24 h the cells were transfected with either control siRNA or 10 nM Skp2 siRNA using HiPerfect transfection reagent (Qiagen; Valencia, Calif.) and siRNA to three different sites including a pool of siRNAs as shown in the experiment, as previously described (Huang et al., “Estrogen and Progesterone Regulate p27kip1 Levels via the Ubiquitin-Proteasome System: Pathogenic and Therapeutic Implications for Endometrial Cancer,” PLoS One 7:e46072 (2012), which is hereby incorporated by reference in its entirety). […] To determine the effect of C2 and C20 on cell proliferation after knock-down of Skp2, the cells were seeded in 96-well plates at a density of 1×10^4 in complete media, transfected, synchronized, treated with C2 and C20, and cell proliferation determined, as described above.

LNCaP = test: Cell cycle FACS analysis, LNCaP; format: cell-based, human; conditions: 10 μM for 16 hours
Description: Whole cell extracts were prepared and immunoblotted as previously described Dorrello et al., “S6K1- and betaTRCP-mediated Degradation of PDCD4 Promotes Protein Translation and Cell Growth,” Science 314:467-471 (2006), which is hereby incorporated by reference in its entirety. For knockdown of Skp2 or p27, shRNAs were induced with 2 ng/ml doxycycline for 48 hours, with the last 16 hours co-treated with 0.1% Vehicle or 10 μM inhibitors as indicated. For cycloheximide chase, cells were pretreated 16 h with 0.1% Vehicle or 10 μM inhibitors, followed by 20 ng/ml cycloheximide (Sigma) and whole cell extracts collected for each time point. […] Scanning densitometry was performed on immunoblots using Image J software. For cell cycle analysis, cells were treated with 0.1% Vehicle or 10 μM inhibitors for 16 h. 1×10^6 cells were fixed in 70% ethanol for 2 h, treated with 200 μg/ml RNase A (Invitrogen) for 30 minutes, and stained with 20 μg/ml Propidium Iodine (Sigma). All samples were assayed in triplicates. Signal was detected using the Becton Dickson LSRII flow cytometer and cell cycle profiles were analyzed with FloJo.

T2 sequence (Q13309 89-424 limits assumed): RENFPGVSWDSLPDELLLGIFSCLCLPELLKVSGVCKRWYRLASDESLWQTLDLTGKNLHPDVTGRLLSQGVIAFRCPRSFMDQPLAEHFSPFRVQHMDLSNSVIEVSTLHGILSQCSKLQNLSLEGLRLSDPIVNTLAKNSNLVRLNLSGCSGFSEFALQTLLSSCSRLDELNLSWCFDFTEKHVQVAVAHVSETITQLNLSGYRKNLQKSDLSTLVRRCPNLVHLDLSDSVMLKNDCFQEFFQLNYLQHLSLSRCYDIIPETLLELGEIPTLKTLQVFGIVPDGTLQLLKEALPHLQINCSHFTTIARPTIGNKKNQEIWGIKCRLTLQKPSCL
T2 sequence (P61024 whole entry, the tested form may be a part): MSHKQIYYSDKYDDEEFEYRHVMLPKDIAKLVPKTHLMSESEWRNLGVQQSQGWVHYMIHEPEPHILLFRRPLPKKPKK
T1 sequence (Q13309 89-424 limits assumed): as the sequence (Q13309 89-424 limits assumed) above
T1 sequence (P61024 whole entry, the tested form may be a part): as the sequence (P61024 whole entry, the tested form may be a part) above

IC50 (KSM-11) | Shift of melting temperature (Tm) of purified protein complex (His-6Skp1-Skp2-Cks1) | IC50 (ARP-1) | SMILES | Rate of active cells (MCF-7) | Kd [1] | Inhibition of cellular proliferation over the Vehicle control (ECC-1 cells [2]) | Blocking E2-induced proliferation (ECC-1 cells [2]) | Increase in nuclear p27 and inhibition of cell proliferation following Skp2 knock-down (ECC-1 cells [3]) | Inhibition of cell proliferation (ECC-1 cells [3]) | G1 cells (LNCaP) | S phase cells (LNCaP) | EC50 (ECC-1 cells [2]; Hillslope method, read-out: EC50 inhibiting proliferation)
1.84 µM | shifted the melting temperature | 3.84 µM | O=C(O)COc1ccc(Br)cc1C=C1SC(=S)N(Cc2cccnc2)C1=O [Compound C1] | a lower rate of active cells | – | – | – | – | – | – | – | –
– | – | – | O=C(NN=Cc1cc(Br)cc(Br)c1O)C(=Cc1ccccc1O)NC(=O)c1ccccc1 [Compound C20] | – | 47 ± 14 µM | 30% | equal to the effect of blocking ER activation with ICI 182,780 | completely abrogated | 27% | – | – | –
– | – | – | COC(=O)C1=C(C)N(c2ccc(Br)cc2)C(=O)C1=Cc1ccccc1O [Compound C2] | – | – | 33% | equal to the effect of blocking ER activation with ICI 182,780 | completely abrogated | 29% | a mild, but significant, increase in G1 cells | a reduction in S phase cells | 14.3 µM

Reference: patent publication US9261497B2, “Method of treating cancer with modulators of SCFSkp2” (New York University, priority 2012, dated 2016)
